Consider one compound from patent US20050107386A1, “Methods of treating diseases and disorders by targeting multiple kinases” (priority 2003, published 2005).

In series [1] the test system is cancer cell lines: non-small cell lung (NSCLC); colon; pancreatic; head and neck; breast and ovarian cancers. The series can be described thus: Antiproliferative activity against a broad spectrum of cancer cell lines. It is filed as cell-based. The note with it: each of the cancer cell line types. An excerpt: (§1) CC001 is a low molecular weight mixed kinase inhibitor (MKI) with potent in vitro inhibitory activity against a variety of kinases.

In series [2] the test system is HCT-116 colon cancer cells. Put plainly: Activation of kinases and their downstream targets in HCT-116 cells. It is filed as cell-based. The note with it: concentration-dependent.
Description: as §1

Another series concerns NCI-H460 NSCLC xenograft. Put plainly: NCI-H460 NSCLC xenograft model. It is filed as in vivo. The note with it: CC001 combined with the maximum tolerated dose of Taxotere. Here is the method:
A similar study was performed using an NCI-H460 NSCLC xenograft model in which CC001 was combined with the maximum tolerated dose of Taxotere (an anti-cancer compound related to taxol). […]. […]

A further series has as its system cancer cell lines. Put plainly: In vitro combination studies with standard chemotherapeutic agents and signal transduction inhibitors. It is filed as cell-based. The note with it: with standard chemotherapeutic agents such as taxol, and novel signal transduction inhibitors.
Description: as §1

Regarding `COc1ccc2cc(-c3n[nH]c4ccc(-c5n[nH]c(CN6CCOCC6)n5)cc34)ccc2c1` [CC001, 3-(6-Methoxynaphthalen-2-yl)-5-(5-Morpholin-4-Ylmethyl-1H-[1,2,4]Triazol-3-yl)-1H-Indazole], the “antiproliferative activity, IC50 values” in series [1] was “nanomolar range”. For the same compound, in series [2], the “activation of kinases and their downstream targets” value was “inhibited the activation of kinases and their downstream targets”. Also, in the series on NCI-H460 NSCLC xenograft, the T/C ratio is recorded as 16-28% and the “additional toxicity as evidenced by weight loss” value was “No apparent additional toxicity”. The “antiproliferative activity in combination” value with cancer cell lines is “additive and/or synergistic antiproliferative activity”.
